Source: PubChem BioAssay (NCI)
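In this assay, cells in 96-well plates receive the compound at five concentrations for 48 hours. Endpoints are linearly interpolated between the surrounding concentrations. TGI is the concentration that stops growth completely.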

Tests used:
Assay in all cases: NCI tumour cell line growth inhibition, 48 h
RPMI-8226 leukemia = system: RPMI-8226 leukemia
HS 578T breast = system: HS 578T breast
OVCAR-3 ovarian = system: OVCAR-3 ovarian
LOX IMVI melanoma = system: LOX IMVI melanoma
TK-10 renal = system: TK-10 renal
MOLT-4 leukemia = system: MOLT-4 leukemia
EKVX NSCLC = system: EKVX NSCLC
DU-145 prostate = system: DU-145 prostate
HCC-2998 colon = system: HCC-2998 colon
KM12 colon = system: KM12 colon
UACC-62 melanoma = system: UACC-62 melanoma
NCI/ADR-RES ovarian = system: NCI/ADR-RES ovarian
SF-539 CNS = system: SF-539 CNS
K-562 leukemia = system: K-562 leukemia
CCRF-CEM leukemia = system: CCRF-CEM leukemia
T-47D breast = system: T-47D breast
NCI-H226 lung = system: NCI-H226 lung
NCI-H460 lung = system: NCI-H460 lung
786-0 renal = system: 786-0 renal
CAKI-1 renal = system: CAKI-1 renal
MDA-MB-231 breast = system: MDA-MB-231 breast
SF-268 CNS = system: SF-268 CNS
ACHN renal = system: ACHN renal
SK-MEL-28 melanoma = system: SK-MEL-28 melanoma
A549 NSCLC = system: A549 NSCLC
HCT-116 colon = system: HCT-116 colon
A498 renal = system: A498 renal
SNB-19 CNS = system: SNB-19 CNS
RXF 393 renal = system: RXF 393 renal
MALME-3M melanoma = system: MALME-3M melanoma
SW-620 colon = system: SW-620 colon
SN12C renal = system: SN12C renal
OVCAR-4 ovarian = system: OVCAR-4 ovarian
HOP-62 NSCLC = system: HOP-62 NSCLC
SK-MEL-2 melanoma = system: SK-MEL-2 melanoma
HL-60(TB) leukemia = system: HL-60(TB) leukemia
NCI-H23 lung = system: NCI-H23 lung
BT-549 breast = system: BT-549 breast
SNB-75 CNS = system: SNB-75 CNS
SF-295 CNS = system: SF-295 CNS
SK-MEL-5 melanoma = system: SK-MEL-5 melanoma
UACC-257 melanoma = system: UACC-257 melanoma
HT29 colon = system: HT29 colon
SK-OV-3 ovarian = system: SK-OV-3 ovarian
MDA-N = system: MDA-N
HCT-15 colon = system: HCT-15 colon
M14 melanoma = system: M14 melanoma
HOP-92 NSCLC = system: HOP-92 NSCLC
NCI-H522 lung = system: NCI-H522 lung
MCF7 breast = system: MCF7 breast
PC-3 prostate = system: PC-3 prostate
OVCAR-5 ovarian = system: OVCAR-5 ovarian
IGROV1 ovarian = system: IGROV1 ovarian
COLO 205 colon = system: COLO 205 colon
U251 CNS = system: U251 CNS
SR leukemia = system: SR leukemia
MDA-MB-435 = system: MDA-MB-435
OVCAR-8 ovarian = system: OVCAR-8 ovarian
UO-31 renal = system: UO-31 renal

Question: What does the source list for `O=C(/C=C/c1cccc(Br)c1)N1CCN(CCOC(c2ccccc2)c2ccccc2)CC1`?
Answer: TGI (RPMI-8226 leukemia): 36.2 µM; TGI (HS 578T breast): > 100 µM; TGI (OVCAR-3 ovarian): > 100 µM; TGI (LOX IMVI melanoma): 54.8 µM; TGI (TK-10 renal): > 100 µM; TGI (MOLT-4 leukemia): 30.8 µM; TGI (EKVX NSCLC): > 100 µM; TGI (DU-145 prostate): > 100 µM; TGI (HCC-2998 colon): > 100 µM; TGI (KM12 colon): > 100 µM; TGI (UACC-62 melanoma): > 100 µM; TGI (NCI/ADR-RES ovarian): > 100 µM; TGI (SF-539 CNS): 39.1 µM; TGI (K-562 leukemia): 55 µM; TGI (CCRF-CEM leukemia): 39.8 µM; TGI (T-47D breast): 82.9 µM; TGI (NCI-H226 lung): > 100 µM; TGI (NCI-H460 lung): > 100 µM; TGI (786-0 renal): > 100 µM; TGI (CAKI-1 renal): > 100 µM; TGI (MDA-MB-231 breast): > 100 µM; TGI (SF-268 CNS): > 100 µM; TGI (ACHN renal): > 100 µM; TGI (SK-MEL-28 melanoma): > 100 µM; TGI (A549 NSCLC): > 100 µM; TGI (HCT-116 colon): > 100 µM; TGI (A498 renal): > 100 µM; TGI (SNB-19 CNS): > 100 µM; TGI (RXF 393 renal): > 100 µM; TGI (MALME-3M melanoma): > 100 µM; TGI (SW-620 colon): > 100 µM; TGI (SN12C renal): > 100 µM; TGI (OVCAR-4 ovarian): > 100 µM; TGI (HOP-62 NSCLC): > 100 µM; TGI (SK-MEL-2 melanoma): > 100 µM; TGI (HL-60(TB) leukemia): 46.6 µM; TGI (NCI-H23 lung): > 100 µM; TGI (BT-549 breast): 84.2 µM; TGI (SNB-75 CNS): > 100 µM; TGI (SF-295 CNS): > 100 µM; TGI (SK-MEL-5 melanoma): 30.7 µM; TGI (UACC-257 melanoma): > 100 µM; TGI (HT29 colon): 81.5 µM; TGI (SK-OV-3 ovarian): > 100 µM; TGI (MDA-N): > 100 µM; TGI (HCT-15 colon): > 100 µM; TGI (M14 melanoma): > 100 µM; TGI (HOP-92 NSCLC): 99.1 µM; TGI (NCI-H522 lung): > 100 µM; TGI (MCF7 breast): > 100 µM; TGI (PC-3 prostate): > 100 µM; TGI (OVCAR-5 ovarian): > 100 µM; TGI (IGROV1 ovarian): > 100 µM; TGI (COLO 205 colon): 57.4 µM; TGI (U251 CNS): > 100 µM; TGI (SR leukemia): 38.4 µM; TGI (MDA-MB-435): > 100 µM; TGI (OVCAR-8 ovarian): > 100 µM; TGI (UO-31 renal): 65.8 µM

Question: Which results are given for `c1ccc(CC(Nc2cccnc2)c2ccccc2)cc1` (stereo not drawn)?
Answer: TGI (RPMI-8226 leukemia): 56.5 µM; TGI (HS 578T breast): 95.2 µM; TGI (OVCAR-3 ovarian): 34.3 µM; TGI (LOX IMVI melanoma): 31.9 µM; TGI (TK-10 renal): 94.9 µM; TGI (MOLT-4 leukemia): 47.7 µM; TGI (EKVX NSCLC): 98.3 µM; TGI (DU-145 prostate): > 100 µM; TGI (HCC-2998 colon): 39.9 µM; TGI (KM12 colon): 70.2 µM; TGI (UACC-62 melanoma): 36.9 µM; TGI (NCI/ADR-RES ovarian): 68.2 µM; TGI (SF-539 CNS): 40.5 µM; TGI (K-562 leukemia): > 100 µM; TGI (CCRF-CEM leukemia): 46.2 µM; TGI (T-47D breast): > 100 µM; TGI (NCI-H226 lung): 51.4 µM; TGI (NCI-H460 lung): 52.9 µM; TGI (786-0 renal): 54.4 µM; TGI (CAKI-1 renal): > 100 µM; TGI (MDA-MB-231 breast): 48.7 µM; TGI (SF-268 CNS): > 100 µM; TGI (ACHN renal): > 100 µM; TGI (SK-MEL-28 melanoma): > 100 µM; TGI (A549 NSCLC): > 100 µM; TGI (HCT-116 colon): 30.1 µM; TGI (A498 renal): > 100 µM; TGI (SNB-19 CNS): > 100 µM; TGI (RXF 393 renal): 51.2 µM; TGI (MALME-3M melanoma): 72.4 µM; TGI (SW-620 colon): > 100 µM; TGI (SN12C renal): 50.8 µM; TGI (OVCAR-4 ovarian): > 100 µM; TGI (HOP-62 NSCLC): 60.1 µM; TGI (SK-MEL-2 melanoma): 36 µM; TGI (HL-60(TB) leukemia): 50.1 µM; TGI (NCI-H23 lung): 82.2 µM; TGI (BT-549 breast): 65.6 µM; TGI (SNB-75 CNS): 60.1 µM; TGI (SF-295 CNS): 43.3 µM; TGI (SK-MEL-5 melanoma): 29.4 µM; TGI (UACC-257 melanoma): 49.8 µM; TGI (HT29 colon): 32.6 µM; TGI (SK-OV-3 ovarian): > 100 µM; TGI (MDA-N): 47.8 µM; TGI (HCT-15 colon): > 100 µM; TGI (M14 melanoma): 37.9 µM; TGI (HOP-92 NSCLC): 35.9 µM; TGI (NCI-H522 lung): 60.4 µM; TGI (MCF7 breast): > 100 µM; TGI (PC-3 prostate): 76.9 µM; TGI (OVCAR-5 ovarian): 98.8 µM; TGI (IGROV1 ovarian): > 100 µM; TGI (COLO 205 colon): 37 µM; TGI (U251 CNS): 42 µM; TGI (SR leukemia): 50.9 µM; TGI (MDA-MB-435): 64.4 µM; TGI (OVCAR-8 ovarian): > 100 µM; TGI (UO-31 renal): 45 µM
